Measured values reported in ChEMBL document CHEMBL4673260, “Pyridine alkaloids with activity in the central nervous system” (Bioorg Med Chem, 2020).

Legend:
[1] = Induction of contextual fear extinction in fear-conditioned C57/BlJ6 mouse assessed as decrease in initial freezing behavior at 5 mg/kg administered for 1 week by contextual fear conditioning assay; format: functional; design: scale not given: the % may be the effect or the level left; conditions: time 1 weeks
Homo sapiens [2] = species on record: Homo sapiens; assay: Inhibition of human protein kinase A at 10 uM relative to control
Homo sapiens [3] = species on record: Homo sapiens; assay: Inhibition of human PDE3A1A at 10 uM relative to control
[4] = target: Neuropeptide Y receptor type 2 (Homo sapiens) (UniProt P49146); assay: Inhibition of human NPY2R expressed in CHO-K1 cells at 10 uM relative to control; format: cell-based
[5] = target: Type-1 angiotensin II receptor (Homo sapiens) (UniProt P30556); assay: Inhibition of human AT1 receptor expressed in CHO-K1 cells at 10 uM relative to control; format: cell-based
hERG (KCNH2) = hERG (KCNH2) (Homo sapiens, UniProt Q12809); assay: Inhibition of human ERG in HEK293 cells at 10 uM relative to control; format: cell-based; conditions: HEK293 cells that express hERG
Sequence of hERG (KCNH2) (Q12809 whole entry): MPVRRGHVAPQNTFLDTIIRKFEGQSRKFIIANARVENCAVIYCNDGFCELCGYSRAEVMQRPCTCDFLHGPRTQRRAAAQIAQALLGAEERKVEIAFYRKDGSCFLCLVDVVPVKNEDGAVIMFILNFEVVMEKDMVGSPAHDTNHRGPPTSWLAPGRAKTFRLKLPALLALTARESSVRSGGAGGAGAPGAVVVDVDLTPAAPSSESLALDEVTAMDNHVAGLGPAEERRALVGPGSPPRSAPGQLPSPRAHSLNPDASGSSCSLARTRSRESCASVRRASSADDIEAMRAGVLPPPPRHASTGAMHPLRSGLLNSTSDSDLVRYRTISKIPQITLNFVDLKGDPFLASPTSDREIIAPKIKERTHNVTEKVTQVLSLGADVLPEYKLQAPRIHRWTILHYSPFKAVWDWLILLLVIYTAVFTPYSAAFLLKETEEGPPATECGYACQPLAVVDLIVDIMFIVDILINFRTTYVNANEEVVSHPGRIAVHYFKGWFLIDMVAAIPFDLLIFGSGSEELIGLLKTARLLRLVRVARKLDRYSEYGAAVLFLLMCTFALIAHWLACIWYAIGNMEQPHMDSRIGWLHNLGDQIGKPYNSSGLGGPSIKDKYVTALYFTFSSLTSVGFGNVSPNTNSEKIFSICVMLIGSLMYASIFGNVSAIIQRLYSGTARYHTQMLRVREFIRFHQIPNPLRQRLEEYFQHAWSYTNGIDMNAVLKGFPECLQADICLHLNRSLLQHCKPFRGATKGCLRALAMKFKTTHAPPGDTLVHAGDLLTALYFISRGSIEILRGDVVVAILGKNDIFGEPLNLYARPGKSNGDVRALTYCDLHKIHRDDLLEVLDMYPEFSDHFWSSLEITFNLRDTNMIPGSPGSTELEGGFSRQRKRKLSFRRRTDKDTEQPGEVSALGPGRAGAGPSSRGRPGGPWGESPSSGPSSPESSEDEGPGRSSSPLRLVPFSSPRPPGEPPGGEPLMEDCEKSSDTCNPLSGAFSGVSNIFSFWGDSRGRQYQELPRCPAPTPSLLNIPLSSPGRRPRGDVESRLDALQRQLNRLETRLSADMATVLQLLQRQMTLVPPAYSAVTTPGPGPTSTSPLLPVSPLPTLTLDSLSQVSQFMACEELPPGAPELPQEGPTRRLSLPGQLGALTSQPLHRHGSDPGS

L-type calcium channel = L-type calcium channel (Homo sapiens, UniProt O60840+Q01668+Q13698+Q13936); assay: Inhibition of L-type calcium channel (unknown origin) at 10 uM relative to control; format: protein assay
[6] = target: Sigma non-opioid intracellular receptor 1 (Homo sapiens) (UniProt Q99720); assay: Inhibition of sigma 1 receptor (unknown origin) at 10 uM relative to control
Sequence of Sigma non-opioid intracellular receptor 1 (Homo sapiens) (Q99720 whole entry): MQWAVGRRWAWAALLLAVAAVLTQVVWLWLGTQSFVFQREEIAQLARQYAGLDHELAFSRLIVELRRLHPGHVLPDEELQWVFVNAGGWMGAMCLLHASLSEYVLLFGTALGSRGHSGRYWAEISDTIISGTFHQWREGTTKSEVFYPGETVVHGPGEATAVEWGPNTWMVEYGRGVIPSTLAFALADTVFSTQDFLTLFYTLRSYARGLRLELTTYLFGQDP

[7] = target: 5-hydroxytryptamine receptor 4 (Homo sapiens) (UniProt Q13639); assay: Inhibition of 5HT-4 (unknown origin) receptor at 10 uM relative to control
Sequence of 5-hydroxytryptamine receptor 4 (Homo sapiens) (Q13639 whole entry): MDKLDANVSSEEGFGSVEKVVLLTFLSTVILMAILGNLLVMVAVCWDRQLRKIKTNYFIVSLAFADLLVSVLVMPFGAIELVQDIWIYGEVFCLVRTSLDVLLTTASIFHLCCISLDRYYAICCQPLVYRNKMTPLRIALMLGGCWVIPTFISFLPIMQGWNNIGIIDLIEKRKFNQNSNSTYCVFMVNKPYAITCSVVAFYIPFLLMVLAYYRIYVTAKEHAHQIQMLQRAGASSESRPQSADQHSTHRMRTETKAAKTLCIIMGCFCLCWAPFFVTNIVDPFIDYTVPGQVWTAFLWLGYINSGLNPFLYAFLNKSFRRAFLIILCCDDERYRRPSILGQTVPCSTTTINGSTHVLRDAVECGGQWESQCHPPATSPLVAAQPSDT

[8] = target: 5-hydroxytryptamine receptor 3A (Homo sapiens) (UniProt P46098); assay: Inhibition of 5HT-3 (unknown origin) receptor at 10 uM relative to control
Sequence of 5-hydroxytryptamine receptor 3A (Homo sapiens) (P46098 whole entry): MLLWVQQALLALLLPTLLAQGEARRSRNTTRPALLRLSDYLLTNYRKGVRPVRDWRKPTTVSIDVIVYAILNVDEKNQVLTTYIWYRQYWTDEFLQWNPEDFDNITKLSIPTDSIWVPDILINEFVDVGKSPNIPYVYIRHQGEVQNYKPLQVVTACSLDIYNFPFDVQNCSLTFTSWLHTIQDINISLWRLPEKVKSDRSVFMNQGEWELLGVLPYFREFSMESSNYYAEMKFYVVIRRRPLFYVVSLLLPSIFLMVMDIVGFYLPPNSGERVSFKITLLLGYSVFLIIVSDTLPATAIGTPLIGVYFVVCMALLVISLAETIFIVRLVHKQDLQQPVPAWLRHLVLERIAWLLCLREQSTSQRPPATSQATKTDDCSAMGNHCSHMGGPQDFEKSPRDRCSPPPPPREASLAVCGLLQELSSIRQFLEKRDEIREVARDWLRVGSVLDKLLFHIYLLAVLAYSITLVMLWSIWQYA

[9] = target: Muscarinic acetylcholine receptor M5 (Homo sapiens) (UniProt P08912); assay: Inhibition of human muscarinic M5 receptor expressed in CHO-K1 cells at 10 uM relative to control; format: cell-based
[10] = target: Muscarinic acetylcholine receptor M1 (Homo sapiens) (UniProt P11229); assay: Inhibition of human muscarinic M1 receptor expressed in CHO-K1 cells at 10 uM relative to control; format: cell-based
Sequence of Muscarinic acetylcholine receptor M1 (Homo sapiens) (P11229 whole entry): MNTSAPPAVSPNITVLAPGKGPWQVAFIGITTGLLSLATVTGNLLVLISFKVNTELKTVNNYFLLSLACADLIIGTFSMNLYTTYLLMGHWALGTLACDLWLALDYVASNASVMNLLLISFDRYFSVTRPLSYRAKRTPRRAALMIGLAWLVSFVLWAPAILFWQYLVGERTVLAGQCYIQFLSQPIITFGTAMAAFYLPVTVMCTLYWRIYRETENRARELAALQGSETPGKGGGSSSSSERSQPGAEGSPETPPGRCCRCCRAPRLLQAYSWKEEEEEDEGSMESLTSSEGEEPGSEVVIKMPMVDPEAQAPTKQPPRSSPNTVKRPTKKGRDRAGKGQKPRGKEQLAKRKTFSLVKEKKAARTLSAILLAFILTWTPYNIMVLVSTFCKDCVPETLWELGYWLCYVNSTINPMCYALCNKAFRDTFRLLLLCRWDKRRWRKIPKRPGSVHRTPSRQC

Histamine H3 receptor = Histamine H3 receptor (Homo sapiens, UniProt Q9Y5N1); assay: Inhibition of human histamine H3 receptor expressed in CHO-K1 cells at 10 uM relative to control; format: cell-based
[11] = target: Histamine H2 receptor (Homo sapiens) (UniProt P25021); assay: Inhibition of human histamine H2 receptor expressed in CHO-K1 cells at 10 uM relative to control; format: cell-based
[12] = target: Histamine H1 receptor (Homo sapiens) (UniProt P35367); assay: Inhibition of human histamine H1 receptor expressed in CHO-K1 cells at 10 uM relative to control; format: cell-based
Homo sapiens [13] = species on record: Homo sapiens; assay: Inhibition of Glutamate receptor ionotropic NMDA agonist site (unknown origin) at 10 uM relative to control
Homo sapiens [14] = species on record: Homo sapiens; assay: Inhibition of Glutamate receptor ionotropic kainate site (unknown origin) at 10 uM relative to control
[15] = target: D(1A) dopamine receptor (Homo sapiens) (UniProt P21728); assay: Inhibition of human dopamine D1 receptor at 10 uM relative to control
[16] = target: Sodium-dependent dopamine transporter (Homo sapiens) (UniProt Q01959); assay: Inhibition of human dopamine transporter expressed in CHO-K1 cells at 10 uM relative to control; format: cell-based
Sequence of Sodium-dependent dopamine transporter (Homo sapiens) (Q01959 whole entry): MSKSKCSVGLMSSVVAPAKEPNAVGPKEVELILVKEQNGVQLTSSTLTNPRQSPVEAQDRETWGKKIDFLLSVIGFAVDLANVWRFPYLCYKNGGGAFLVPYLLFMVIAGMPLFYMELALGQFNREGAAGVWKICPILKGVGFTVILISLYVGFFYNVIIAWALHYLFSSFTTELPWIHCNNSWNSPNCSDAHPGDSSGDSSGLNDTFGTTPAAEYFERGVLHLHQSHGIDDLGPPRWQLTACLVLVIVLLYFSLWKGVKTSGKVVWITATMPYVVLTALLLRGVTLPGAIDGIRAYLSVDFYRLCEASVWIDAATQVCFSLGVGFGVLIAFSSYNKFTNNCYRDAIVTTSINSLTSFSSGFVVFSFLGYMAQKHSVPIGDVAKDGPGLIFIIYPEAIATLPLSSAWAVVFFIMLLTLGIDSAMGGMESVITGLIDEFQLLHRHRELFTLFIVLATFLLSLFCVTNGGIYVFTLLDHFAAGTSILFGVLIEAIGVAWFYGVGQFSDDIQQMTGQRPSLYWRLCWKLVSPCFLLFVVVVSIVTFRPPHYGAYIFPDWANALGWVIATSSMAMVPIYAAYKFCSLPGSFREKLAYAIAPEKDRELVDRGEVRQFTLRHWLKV

[17] = target: Beta-2 adrenergic receptor (Homo sapiens) (UniProt P07550); assay: Inhibition of human adrenergic receptor beta2 expressed in CHO-K1 cells at 10 uM relative to control; format: cell-based
Sequence of Beta-2 adrenergic receptor (Homo sapiens) (P07550 whole entry, looked up): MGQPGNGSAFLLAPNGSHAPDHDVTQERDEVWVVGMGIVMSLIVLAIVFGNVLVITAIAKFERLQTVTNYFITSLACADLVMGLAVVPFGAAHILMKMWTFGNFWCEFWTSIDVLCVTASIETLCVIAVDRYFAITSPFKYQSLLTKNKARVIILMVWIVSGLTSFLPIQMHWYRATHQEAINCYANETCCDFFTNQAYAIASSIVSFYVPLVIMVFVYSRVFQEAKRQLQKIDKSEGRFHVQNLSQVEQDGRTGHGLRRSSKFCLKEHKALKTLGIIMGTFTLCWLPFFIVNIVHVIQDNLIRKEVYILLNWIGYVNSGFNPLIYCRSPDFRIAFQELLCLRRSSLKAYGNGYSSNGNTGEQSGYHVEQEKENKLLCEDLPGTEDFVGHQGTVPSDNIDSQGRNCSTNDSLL

[18] = target: Beta-1 adrenergic receptor (Homo sapiens) (UniProt P08588); assay: Inhibition of human adrenergic receptor beta1 expressed in CHO-K1 cells at 10 uM relative to control; format: cell-based
Sequence of Beta-1 adrenergic receptor (Homo sapiens) (P08588 whole entry, looked up): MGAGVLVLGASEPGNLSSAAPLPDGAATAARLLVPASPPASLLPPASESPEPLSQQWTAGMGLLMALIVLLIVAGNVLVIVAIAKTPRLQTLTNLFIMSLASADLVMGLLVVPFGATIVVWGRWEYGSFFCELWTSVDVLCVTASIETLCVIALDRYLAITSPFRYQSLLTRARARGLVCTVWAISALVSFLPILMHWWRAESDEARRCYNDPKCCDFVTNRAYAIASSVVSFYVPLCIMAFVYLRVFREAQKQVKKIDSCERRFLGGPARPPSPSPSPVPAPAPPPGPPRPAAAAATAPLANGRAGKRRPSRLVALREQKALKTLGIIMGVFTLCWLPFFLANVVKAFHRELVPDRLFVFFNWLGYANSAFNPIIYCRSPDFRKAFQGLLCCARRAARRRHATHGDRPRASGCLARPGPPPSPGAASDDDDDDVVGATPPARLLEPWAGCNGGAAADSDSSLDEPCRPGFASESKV

[19] = target: Alpha-2C adrenergic receptor (Homo sapiens) (UniProt P18825); assay: Inhibition of human adrenergic receptor alpha2C expressed in CHO-K1 cells at 10 uM relative to control; format: cell-based
[20] = target: Alpha-2B adrenergic receptor (Homo sapiens) (UniProt P18089); assay: Inhibition of human adrenergic receptor alpha2B expressed in CHO-K1 cells at 10 uM relative to control; format: cell-based
[21] = target: Adenosine receptor A1 (Homo sapiens) (UniProt P30542); assay: Inhibition of human adenosine receptor A1 expressed in CHO-K1 cells at 10 uM relative to control; format: cell-based
[22] = target: Alpha-1B adrenergic receptor (Homo sapiens) (UniProt P35368); assay: Inhibition of human adrenergic receptor alpha1B expressed in CHO-K1 cells at 10 uM relative to control; format: cell-based
Sequence of Alpha-1B adrenergic receptor (Homo sapiens) (P35368 whole entry): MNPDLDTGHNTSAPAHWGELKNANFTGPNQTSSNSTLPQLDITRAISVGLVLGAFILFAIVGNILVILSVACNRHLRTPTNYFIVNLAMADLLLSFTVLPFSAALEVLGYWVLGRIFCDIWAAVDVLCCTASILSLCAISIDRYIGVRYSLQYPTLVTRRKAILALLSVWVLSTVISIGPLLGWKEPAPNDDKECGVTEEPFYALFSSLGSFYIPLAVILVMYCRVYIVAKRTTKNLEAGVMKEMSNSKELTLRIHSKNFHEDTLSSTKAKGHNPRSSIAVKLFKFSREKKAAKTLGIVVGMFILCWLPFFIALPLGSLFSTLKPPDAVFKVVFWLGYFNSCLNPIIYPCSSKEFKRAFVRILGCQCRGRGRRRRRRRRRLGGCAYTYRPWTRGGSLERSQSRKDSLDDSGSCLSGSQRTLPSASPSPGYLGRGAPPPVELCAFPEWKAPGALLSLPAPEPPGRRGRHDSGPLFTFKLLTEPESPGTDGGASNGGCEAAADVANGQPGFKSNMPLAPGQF

[23] = target: Alpha-1A adrenergic receptor (Homo sapiens) (UniProt P35348); assay: Inhibition of human adrenergic receptor alpha1A expressed in CHO-K1 cells at 10 uM relative to control; format: cell-based

CN1C(=O)CC[C@H]1c1cccnc1 [COTININE]
< 50%: inhibition (Homo sapiens [2]) | inhibition (Homo sapiens [3]) | inhibition [4] | inhibition [5] | inhibition at 10 µM (hERG (KCNH2)) | inhibition at 10 µM (L-type calcium channel) | inhibition [6] | inhibition [7] | inhibition [8] | inhibition [9] | inhibition [10] | inhibition (Histamine H3 receptor) | inhibition [11] | inhibition [12] | inhibition (Homo sapiens [13]) | inhibition (Homo sapiens [14]) | inhibition [15] | inhibition [16] | inhibition [17] | inhibition [18] | inhibition [19] | inhibition [20] | inhibition [21] | inhibition [22] | inhibition [23]
>=20%: Activity [1]
